Reference: patent US20250222005A1, “METHYLENE BLUE CONTAINING COMPOUNDS FOR THE TREATMENT OF METHAEMOGLOBINAEMIA” (Wis Ta Laboratories Ltd., priority 2022, published 2025)

Columns and labels:
heme iron of haemoglobin = heme iron of haemoglobin (Homo sapiens, UniProt P68871+P69905); conditions: from crystal field theory (Jorgensen); cited from earlier work
methaemoglobin = assay: Methaemoglobin (metHb) levels by pulse oximetry in AD trial patients receiving oral LMTM; format: in vivo, human; conditions: for Methaemoglobin, mean %: Table 5A, patients with SpO2 <94% at baseline; for Methaemoglobin, mean %, post dose: 4 hours post-dose, baseline SpO2 <94%; for Methaemoglobin, mean % ± SE: Table 5B, all patients
Description: (§1) Methods: Eighteen AD trial participants randomised to unit 4/75/100/125 mg doses of LMTM had SPO2 levels below 94% at baseline. Patients were routinely monitored by pulse oximetry after 4 hrs, and after 2 and 6 weeks of twice daily dosing. Computational chemistry was used to understand LMT-heme binding. The study design and results from two Phase 3, double-blind, controlled, randomised, studies of LMTM as a potential treatment for AD were described elsewhere (see “Gauthier, S., et al. “Efficacy and safety of tau-aggregation inhibitor therapy in patients with mild or moderate Alzheimer's disease: a randomised, controlled, double-blind, parallel-arm, phase 3 trial.” Lancet 2016; 388:2873-2884.” and “Wilcock, G K, et al. “Potential of low dose leuco-methylthioninium bis(hydromethanesulphonate) (LMTM) monotherapy for treatment of mild Alzheimer's disease: cohort analysis as modified primary outcome in a Phase Ill clinical trial.” Journal of Alzheimer's Disease 2017; 61:435-457.). In summary, 890 mild/moderate AD patients were randomly assigned (3:3:4) to 150 mg/day, 250 mg/day or 8 mg/day (intended as a control) for 15-months (clinicaltrials.gov NCT01689246). Similarly, 800 patients with mild AD were randomly assigned to 200 mg/day or 8 mg/day LMTM for 18-months (clinicaltrials.gov NCT01689233). In both trials, MetHb and SpO2 levels were measured by pulse oximetery (Massimo Corporation rad 57) at screening, baseline (within 1 hour prior to dosing), post-dose during the 4-hour observation, and subsequent clinic visits at 2 and 6 weeks. Statistical analyses were performed using R-version 3.5.1, employing paired samples t-tests to compare mean SpO2 and metHb levels.

[1] = system: patients with mild hypoxaemia; assay: Peripheral oxygen saturation (SpO2) by pulse oximetry in AD trial patients with baseline SpO2 below 94% receiving oral LMTM; format: in vivo, human; conditions: for Oxygen saturation, mean %: Baseline (1 hr) 92.167; for Difference in oxygen saturation with respect to baseline: pooled doses; for Oxygen saturation, mean %, post dose: 4 hours post-dose; for Change in mean SpO2 from baseline: four hours
Description: as §1

[2] = system: oxygen-haemoglobin dissociation curve; assay: Estimation of effect of LMT treatment on oxygen-haemoglobin dissociation curve (SpO2 to PaO2 conversion table); design: species or system human; conditions: patients with mild hypoxaemia treated with LMTM; SpO2 plotted at baseline-implied PaO2

heme iron of haemoglobin, sequence (P69905 2-142 limits assumed): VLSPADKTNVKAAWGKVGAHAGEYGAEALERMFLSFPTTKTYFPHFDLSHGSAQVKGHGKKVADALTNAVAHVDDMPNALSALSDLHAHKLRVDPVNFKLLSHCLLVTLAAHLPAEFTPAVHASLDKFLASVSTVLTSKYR
heme iron of haemoglobin, sequence (P68871 2-147 limits assumed): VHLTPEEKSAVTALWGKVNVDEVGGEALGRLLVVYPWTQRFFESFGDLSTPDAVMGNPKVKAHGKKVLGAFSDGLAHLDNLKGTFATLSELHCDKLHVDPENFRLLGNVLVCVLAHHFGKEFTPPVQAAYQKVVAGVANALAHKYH

CN(C)c1ccc2c(c1)Sc1cc(N(C)C)ccc1N2 [LMT, hydromethylthionine]
Estimated field factor of the LMT-heme interaction (heme iron of haemoglobin): 1.2-1.5
Methaemoglobin, mean % (methaemoglobin; LMT dose 4 mg, 4 hr, baseline 0.709): 0.733%
Methaemoglobin, mean % (methaemoglobin; LMT dose 4 mg, Week 2, baseline 0.709): 0.732%
Methaemoglobin, mean % (methaemoglobin; LMT dose 4 mg, Week 6, baseline 0.709): 0.769%
Methaemoglobin, mean % (methaemoglobin; LMT dose 150 mg, 4 hr, baseline 0.721): 0.781%
Methaemoglobin, mean % (methaemoglobin; LMT dose 150 mg, Week 2, baseline 0.721): 0.835%
Methaemoglobin, mean % (methaemoglobin; LMT dose 150 mg, Week 6, baseline 0.721): 0.888%
Methaemoglobin, mean % (methaemoglobin; LMT dose 200 mg, 4 hr, baseline 0.702): 0.760%
Methaemoglobin, mean % (methaemoglobin; LMT dose 200 mg, Week 2, baseline 0.702): 0.849%
Methaemoglobin, mean % (methaemoglobin; LMT dose 200 mg, Week 6, baseline 0.702): 0.873%
Methaemoglobin, mean % (methaemoglobin; LMT dose 250 mg, 4 hr, baseline 0.696): 0.758%
Methaemoglobin, mean % (methaemoglobin; LMT dose 250 mg, Week 2, baseline 0.696): 0.845%
Methaemoglobin, mean % (methaemoglobin; LMT dose 250 mg, Week 6, baseline 0.696): 0.858%
Methaemoglobin, mean %, post dose (methaemoglobin; single 4 mg dose, pre-dose 0.70): 0.87%
Methaemoglobin, mean %, post dose (methaemoglobin; single high dose (indicated as 100 mg), pre-dose 0.90): 0.65%

CN(C)c1ccc2c(c1)Sc1cc(N(C)C)ccc1N2 [LMTM, leuco-methylthioninium bis(hydromethanesulfonate)]
Enhancement of oxygen saturation ([1]; patients with chronic hypoxaemia, single doses 4-125 mg and 6 weeks twice daily): about 3%
Oxygen saturation, mean % ([1]; pooled data all doses (8 mg/day and 150-250 mg/day), Week 2): 95.400%
Oxygen saturation, mean % ([1]; pooled data all doses (8 mg/day and 150-250 mg/day), Week 6): 95.571%
Oxygen saturation, mean % ([1]; pooled data all doses, Baseline (4 hr)): 95.333%
Difference in oxygen saturation with respect to baseline ([1]; week 2, p=0.0034): +3.17%
Difference in oxygen saturation with respect to baseline ([1]; week 6, p=0.0005): +3.23%
Oxygen saturation, mean %, post dose ([1]; single 4 mg dose, patients with baseline SpO2 <94%, pre-dose 91.71): 95.43%
Change in mean SpO2 from baseline ([1]; single 4 mg dose, p=0.0205): +3.72%
Change in mean SpO2 from baseline ([1]; single high dose (75, 100 or 125 mg), p=0.0045): +2.82%
Oxygen saturation, mean %, post dose ([1]; single high dose (75/100/125 mg indicated as 100 mg), baseline SpO2 <94%, pre-dose 92.45): 95.27%
Implied effect of treatment on the oxygen-haemoglobin dissociation curve [2]: implied left-shift
Methaemoglobin, mean % ± SE (methaemoglobin; 8 mg (per day), 4 hr, baseline 0.709 ± 0.017, p 0.09732): 0.732 ± 0.017%
Methaemoglobin, mean % ± SE (methaemoglobin; 8 mg (per day), Week 2, baseline 0.709 ± 0.017, p 0.1326): 0.733 ± 0.018%
Methaemoglobin, mean % ± SE (methaemoglobin; 8 mg (per day), Week 6, baseline 0.709 ± 0.017, p 0.0006916): 0.770 ± 0.019%
Methaemoglobin, mean % ± SE (methaemoglobin; 150 mg (per day), 4 hr, baseline 0.721 ± 0.029, p 0.02212): 0.7811 ± 0.029%
Methaemoglobin, mean % ± SE (methaemoglobin; 150 mg (per day), Week 2, baseline 0.721 ± 0.029, p <0.0001): 0.831 ± 0.032%
Methaemoglobin, mean % ± SE (methaemoglobin; 150 mg (per day), Week 6, baseline 0.721 ± 0.029, p <0.0001): 0.889 ± 0.034%
Methaemoglobin, mean % ± SE (methaemoglobin; 200 mg (per day), 4 hr, baseline 0.702 ± 0.025, p 0.01967): 0.760 ± 0.023%
Methaemoglobin, mean % ± SE (methaemoglobin; 200 mg (per day), Week 2, baseline 0.702 ± 0.025, p <0.0001): 0.849 ± 0.027%
Methaemoglobin, mean % ± SE (methaemoglobin; 200 mg (per day), Week 6, baseline 0.702 ± 0.025, p <0.0001): 0.873 ± 0.030%
Methaemoglobin, mean % ± SE (methaemoglobin; 250 mg (per day), 4 hr, baseline 0.696 ± 0.028, p 0.005868): 0.758 ± 0.028%
Methaemoglobin, mean % ± SE (methaemoglobin; 250 mg (per day), Week 2, baseline 0.696 ± 0.028, p <0.0001): 0.837 ± 0.034%
Methaemoglobin, mean % ± SE (methaemoglobin; 250 mg (per day), Week 6, baseline 0.696 ± 0.028, p <0.0001): 0.851 ± 0.033%
Difference in metHb levels between baseline and 4-hours post-dose (methaemoglobin; both treatment groups (4 mg and high single doses), patients with baseline SpO2 <94%): no consistent difference
Effect on metHb levels over 6 weeks (methaemoglobin; higher doses (150, 200 and 250 mg/day), baseline SpO2 <94% subgroup, not statistically significant): systematically increased
